Data as given in the supplement of paper PMC10307832.

What was measured:
Experiment in all cases: relative viability (nuclei count vs DMSO), 5 days (fraction); higher = more cells survive
Carfilzomib = compound: CC(C)C[C@H](NC(=O)[C@H](CCc1ccccc1)NC(=O)CN1CCOCC1)C(=O)N[C@@H](Cc1ccccc1)C(=O)N[C@@H](CC(C)C)C(=O)[C@@]1(C)CO1 [Carfilzomib]
In short: (§1)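 In 1536-well plates, lung cancer cell lines rested overnight at 37 °C before five library-drug doses (not always all listed), √10 apart, were pinned onto vehicle-anchored plates. Nuclei were counted with MetaXpress from 4× Hoechst images taken after 5 days without medium change. Viability compares treated-well with vehicle-well nuclei as a median over plates, and plates needed control CV below 25% plus at least one doubling to pass.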

Crizotinib = compound: C[C@@H](Oc1cc(-c2cnn(C3CCNCC3)c2)cnc1N)c1c(Cl)ccc(F)c1Cl [Crizotinib]
In short: as §1

Olaparib = compound: O=C(c1cc(Cc2n[nH]c(=O)c3ccccc23)ccc1F)N1CCN(C(=O)C2CC2)CC1 [Olaparib]
In short: as §1

Cell Line	relative viability (Carfilzomib; 0.001 µM)	relative viability (Carfilzomib; 0.003162 µM)	relative viability (Carfilzomib; 0.01 µM)	relative viability (Carfilzomib; 0.03162 µM)	relative viability (Carfilzomib; 0.1 µM)	relative viability (Crizotinib; 0.01 µM)	relative viability (Crizotinib; 0.03162 µM)	relative viability (Crizotinib; 0.1 µM)	relative viability (Crizotinib; 0.3162 µM)	relative viability (Crizotinib; 1 µM)	relative viability (Crizotinib; 1 µM, anchor plate)	relative viability (Olaparib; 0.08 µM)	relative viability (Olaparib; 0.253 µM)	relative viability (Olaparib; 2.53 µM)	relative viability (Olaparib; 8 µM)	relative viability (Olaparib; 8 µM, anchor plate)
IA-LM	0.884	0.879	0.94	0.107	0.0275	0.972	0.959	1.03	0.872	0.888	0.79	1.04	0.889	0.958	0.79	0.853
LC-2-ad	1.04	1.16	1.03	0.473	0.226	0.921	1.02	1.02			0.458	1.09	0.89	0.943	0.866	0.697
LCLC-97TM1	0.907	1.07	0.999	0.368	0.0609	0.902	1.1	1	0.727	0.993	0.338	1.02	0.938	0.904	0.913	0.374
LCLC-103H	0.923	0.974	0.998	0.984	0.459	0.906	1.02	1.07	0.991	1	1.01	1.04	0.893	1	0.862	0.749
LK-2	0.937	1.31	0.96	0.205	0.201	0.972	0.87	0.943	1.03			1.19	0.896	1.09	1.01	0.803
LOU-NH91	0.962	1.08	0.745	0.314	0.309	0.945	0.905	1.09	0.949	0.985	0.729	1.16	0.943	1.01	0.962	0.914
LU99A	0.991	1.06	0.982	0.893	0.433	0.894	1.03		0.795	0.969	0.547	0.98	0.837	0.776	0.532	0.266
LXF-289	0.992	1.04	1.02	0.371	0.104	0.967	1.03	1.08	0.844	1.01	0.809	1.12	0.979	1.1	1.03	1.07
NCI-H23	0.847	1.14	0.856	0.172	0.161	0.808	1.1	1.04		0.904	0.546	1.23	0.84	0.804	0.517	0.344
NCI-H322M	0.911	1.07	1.04	0.961	0.376	0.778		1	0.922	0.955	0.93	1.06	0.888	0.98	0.815	0.745
NCI-H358	0.926	1.03	0.953	0.154	0.133	0.89	0.963	0.902	0.868	0.949	0.574	0.969	0.894	0.934	0.849	0.63
NCI-H441	1.2	1.19	0.432	0.151	0.118	0.99	0.941	0.947		1.02	0.726	1.13	1	0.942	0.76	0.525
NCI-H460	0.929	1.01	1	0.739	0.0357	0.961	0.999	0.996	0.991	1.03	0.905	1.08	0.915	0.895	0.657	0.441
NCI-H520	0.994	1.06	0.782	0.187	0.199	0.895	0.897	0.894	0.836	0.915	0.764	1.02	0.856	0.85	0.609	0.347
NCI-H522	0.889	1.11	1.01	0.734	0.375	0.919	0.954	0.888		0.893		1.08	1.01	0.973	0.703	0.679
NCI-H596	0.951	0.949	0.95	0.697	0.222	1.02	1.04	1.09	0.98	0.967	0.989	0.987	0.86	0.919	0.792	0.711
NCI-H647	0.873	1.06	0.978	0.0791	0.038		1.01	1.01	0.783		1.07	1.08	0.862	0.97	0.879	0.542
NCI-H650	0.811	1.03	0.886	0.751	0.196	1.07	0.97	1.13	0.697	1.03	0.705	1.13	0.872	0.801	0.744	0.378
NCI-H661	0.986	1.05	1.02	0.995	0.535	0.933	0.95	0.945	1.06	1	0.993	1.02	0.924	0.925	0.836	0.753
NCI-H727	0.886	0.998	1.12	0.698	0.423	0.693	1.03	1	0.779	1.17	0.868	1.04	0.753	0.783	0.736	0.741
NCI-H838	0.982	1.05	0.951	0.875	0.151	0.86		0.972	0.888	0.928	0.852	1.02	0.903	0.955	0.945	0.767
NCI-H1299	1.03	1.02	1.02	0.577	0.158	0.976	1.02	1.02		0.976	0.932	1.08	0.981	1.01	0.995	0.968
